Assay results taken from ChEMBL document CHEMBL4507319 (2021).

Assays:
[1] = target: Epidermal growth factor receptor (Homo sapiens) (UniProt P00533); conditions: Compound concentration 1000.0 nM
[2] = target: Homeodomain-interacting protein kinase 1 (Homo sapiens) (UniProt Q86Z02); conditions: Compound concentration 1000.0 nM
[3] = target: Mitogen-activated protein kinase kinase kinase kinase 4 (Homo sapiens) (UniProt O95819); conditions: Compound concentration 1000.0 nM
[4] = target: STE20/SPS1-related proline-alanine-rich protein kinase (Homo sapiens) (UniProt Q9UEW8); conditions: Compound concentration 1000.0 nM
[5] = target: 5-hydroxytryptamine receptor 1D (Homo sapiens) (UniProt P28221); conditions: Compound concentration 10.0 uM
[6] = target: Mitogen-activated protein kinase kinase kinase 6 (Homo sapiens) (UniProt O95382); conditions: Compound concentration 1000.0 nM
Mitogen-activated protein kinase kinase kinase 6 (Homo sapiens), sequence (O95382 whole entry): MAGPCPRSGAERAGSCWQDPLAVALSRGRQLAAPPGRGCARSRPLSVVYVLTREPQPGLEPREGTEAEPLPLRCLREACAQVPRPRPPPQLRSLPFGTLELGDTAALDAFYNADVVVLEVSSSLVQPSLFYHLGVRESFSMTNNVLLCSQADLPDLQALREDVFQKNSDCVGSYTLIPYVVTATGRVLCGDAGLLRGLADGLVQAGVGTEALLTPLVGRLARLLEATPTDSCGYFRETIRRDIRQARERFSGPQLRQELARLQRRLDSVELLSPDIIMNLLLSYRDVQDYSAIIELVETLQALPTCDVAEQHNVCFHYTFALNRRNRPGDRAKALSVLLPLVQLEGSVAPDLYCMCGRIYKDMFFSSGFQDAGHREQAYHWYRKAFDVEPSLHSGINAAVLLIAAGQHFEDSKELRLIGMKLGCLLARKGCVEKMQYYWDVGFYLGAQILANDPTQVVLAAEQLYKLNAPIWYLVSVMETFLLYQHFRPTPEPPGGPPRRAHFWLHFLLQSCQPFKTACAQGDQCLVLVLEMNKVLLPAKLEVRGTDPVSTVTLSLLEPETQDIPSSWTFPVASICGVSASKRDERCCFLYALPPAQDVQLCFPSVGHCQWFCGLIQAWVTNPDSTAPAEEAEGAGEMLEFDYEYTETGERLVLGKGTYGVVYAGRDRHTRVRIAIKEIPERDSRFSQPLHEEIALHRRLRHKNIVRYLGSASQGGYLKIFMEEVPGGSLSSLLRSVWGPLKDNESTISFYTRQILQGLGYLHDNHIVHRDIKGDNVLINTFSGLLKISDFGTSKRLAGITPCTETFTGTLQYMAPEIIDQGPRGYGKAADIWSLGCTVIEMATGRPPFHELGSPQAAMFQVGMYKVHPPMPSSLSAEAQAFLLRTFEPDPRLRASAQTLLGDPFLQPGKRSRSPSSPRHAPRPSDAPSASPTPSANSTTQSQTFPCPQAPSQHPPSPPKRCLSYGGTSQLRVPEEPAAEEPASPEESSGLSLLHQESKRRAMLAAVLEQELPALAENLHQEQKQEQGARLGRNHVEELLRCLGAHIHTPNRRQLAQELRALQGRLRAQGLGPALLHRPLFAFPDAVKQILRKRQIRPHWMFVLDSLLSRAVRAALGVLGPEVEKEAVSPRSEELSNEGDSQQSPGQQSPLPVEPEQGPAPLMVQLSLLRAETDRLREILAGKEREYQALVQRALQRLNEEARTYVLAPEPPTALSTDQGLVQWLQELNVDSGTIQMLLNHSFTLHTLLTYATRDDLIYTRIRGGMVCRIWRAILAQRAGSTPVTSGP

[7] = target: Tyrosine-protein kinase Srms (Homo sapiens) (UniProt Q9H3Y6); conditions: Compound concentration 1000.0 nM
Tyrosine-protein kinase Srms (Homo sapiens), sequence (Q9H3Y6 whole entry): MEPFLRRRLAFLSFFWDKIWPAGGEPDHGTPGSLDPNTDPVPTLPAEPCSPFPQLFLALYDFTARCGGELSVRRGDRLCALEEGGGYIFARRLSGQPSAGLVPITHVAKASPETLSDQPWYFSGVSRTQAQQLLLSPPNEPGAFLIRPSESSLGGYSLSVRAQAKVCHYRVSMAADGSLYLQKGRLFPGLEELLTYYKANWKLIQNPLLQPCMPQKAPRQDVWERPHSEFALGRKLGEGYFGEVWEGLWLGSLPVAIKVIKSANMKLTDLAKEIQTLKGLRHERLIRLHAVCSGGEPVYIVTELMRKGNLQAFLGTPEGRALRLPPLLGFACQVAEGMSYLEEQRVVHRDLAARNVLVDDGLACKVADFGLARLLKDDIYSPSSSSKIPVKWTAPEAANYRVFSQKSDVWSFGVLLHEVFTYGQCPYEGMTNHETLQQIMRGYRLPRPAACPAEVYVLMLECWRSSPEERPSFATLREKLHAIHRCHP

[8] = target: T1, MAP/microtubule affinity-regulating kinase 4 (Homo sapiens) (UniProt Q96L34); conditions: Compound concentration 1000.0 nM
T1 sequence (whole entry): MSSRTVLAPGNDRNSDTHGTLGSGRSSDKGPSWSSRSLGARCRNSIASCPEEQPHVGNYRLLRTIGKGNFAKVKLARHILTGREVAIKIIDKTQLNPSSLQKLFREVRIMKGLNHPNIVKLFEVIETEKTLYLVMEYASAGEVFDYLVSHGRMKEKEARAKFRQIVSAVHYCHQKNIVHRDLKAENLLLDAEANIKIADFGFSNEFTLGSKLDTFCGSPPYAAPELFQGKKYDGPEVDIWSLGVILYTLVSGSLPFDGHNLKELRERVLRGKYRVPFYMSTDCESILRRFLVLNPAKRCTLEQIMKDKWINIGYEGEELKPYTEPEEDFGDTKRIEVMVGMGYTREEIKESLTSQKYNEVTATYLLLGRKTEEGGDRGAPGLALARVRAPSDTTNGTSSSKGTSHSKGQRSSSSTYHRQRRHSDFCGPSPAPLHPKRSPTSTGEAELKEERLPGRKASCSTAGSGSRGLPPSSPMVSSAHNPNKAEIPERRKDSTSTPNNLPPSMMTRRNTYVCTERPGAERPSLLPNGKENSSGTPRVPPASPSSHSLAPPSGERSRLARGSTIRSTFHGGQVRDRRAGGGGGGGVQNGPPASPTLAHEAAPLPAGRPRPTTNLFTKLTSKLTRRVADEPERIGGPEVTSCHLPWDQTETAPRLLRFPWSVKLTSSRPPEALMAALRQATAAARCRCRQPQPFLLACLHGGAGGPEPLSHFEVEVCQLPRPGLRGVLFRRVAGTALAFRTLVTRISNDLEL

[9] = target: LIM domain kinase 1 (Homo sapiens) (UniProt P53667); conditions: Compound concentration 1000.0 nM
LIM domain kinase 1 (Homo sapiens), sequence (P53667 whole entry, looked up, the tested form may be a part): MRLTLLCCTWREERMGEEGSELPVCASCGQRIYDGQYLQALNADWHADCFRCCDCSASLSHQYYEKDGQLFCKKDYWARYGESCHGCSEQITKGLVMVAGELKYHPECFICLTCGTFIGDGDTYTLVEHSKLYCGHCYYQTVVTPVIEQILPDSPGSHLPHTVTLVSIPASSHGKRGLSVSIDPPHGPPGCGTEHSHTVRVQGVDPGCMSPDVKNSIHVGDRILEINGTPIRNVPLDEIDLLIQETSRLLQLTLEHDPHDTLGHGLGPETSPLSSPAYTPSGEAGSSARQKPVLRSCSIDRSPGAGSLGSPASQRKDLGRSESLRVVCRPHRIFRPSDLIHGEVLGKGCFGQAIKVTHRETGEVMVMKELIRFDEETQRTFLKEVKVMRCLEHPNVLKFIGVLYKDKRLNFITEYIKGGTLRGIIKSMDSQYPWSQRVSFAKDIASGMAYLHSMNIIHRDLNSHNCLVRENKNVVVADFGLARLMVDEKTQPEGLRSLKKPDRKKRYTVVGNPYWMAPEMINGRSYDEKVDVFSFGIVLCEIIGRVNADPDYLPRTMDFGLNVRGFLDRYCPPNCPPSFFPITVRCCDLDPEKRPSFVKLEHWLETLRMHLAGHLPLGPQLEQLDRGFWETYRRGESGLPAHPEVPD

[10] = target: T2, Cytoplasmic tyrosine-protein kinase BMX (Homo sapiens) (UniProt P51813); conditions: Compound concentration 1000.0 nM
T2 sequence (whole entry): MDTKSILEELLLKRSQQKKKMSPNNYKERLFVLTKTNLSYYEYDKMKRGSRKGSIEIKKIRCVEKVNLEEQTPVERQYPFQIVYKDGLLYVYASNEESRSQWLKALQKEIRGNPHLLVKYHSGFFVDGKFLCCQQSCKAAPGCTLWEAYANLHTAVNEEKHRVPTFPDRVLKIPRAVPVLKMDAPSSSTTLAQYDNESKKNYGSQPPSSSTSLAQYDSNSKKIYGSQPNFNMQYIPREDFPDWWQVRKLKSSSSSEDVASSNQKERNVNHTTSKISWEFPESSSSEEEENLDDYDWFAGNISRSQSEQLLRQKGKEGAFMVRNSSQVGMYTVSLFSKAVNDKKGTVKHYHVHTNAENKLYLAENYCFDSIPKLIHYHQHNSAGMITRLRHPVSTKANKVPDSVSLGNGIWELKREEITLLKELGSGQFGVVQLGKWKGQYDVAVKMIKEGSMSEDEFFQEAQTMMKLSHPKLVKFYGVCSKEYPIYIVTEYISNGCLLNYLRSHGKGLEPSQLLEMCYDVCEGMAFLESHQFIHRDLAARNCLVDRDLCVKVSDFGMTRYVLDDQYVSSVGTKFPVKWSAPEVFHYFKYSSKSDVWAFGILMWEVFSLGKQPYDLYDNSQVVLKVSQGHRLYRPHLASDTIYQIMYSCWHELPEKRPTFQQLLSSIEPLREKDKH

[11] = target: T3, cGMP-dependent protein kinase 1 (Homo sapiens) (UniProt Q13976); conditions: Compound concentration 1000.0 nM
T3 sequence (whole entry): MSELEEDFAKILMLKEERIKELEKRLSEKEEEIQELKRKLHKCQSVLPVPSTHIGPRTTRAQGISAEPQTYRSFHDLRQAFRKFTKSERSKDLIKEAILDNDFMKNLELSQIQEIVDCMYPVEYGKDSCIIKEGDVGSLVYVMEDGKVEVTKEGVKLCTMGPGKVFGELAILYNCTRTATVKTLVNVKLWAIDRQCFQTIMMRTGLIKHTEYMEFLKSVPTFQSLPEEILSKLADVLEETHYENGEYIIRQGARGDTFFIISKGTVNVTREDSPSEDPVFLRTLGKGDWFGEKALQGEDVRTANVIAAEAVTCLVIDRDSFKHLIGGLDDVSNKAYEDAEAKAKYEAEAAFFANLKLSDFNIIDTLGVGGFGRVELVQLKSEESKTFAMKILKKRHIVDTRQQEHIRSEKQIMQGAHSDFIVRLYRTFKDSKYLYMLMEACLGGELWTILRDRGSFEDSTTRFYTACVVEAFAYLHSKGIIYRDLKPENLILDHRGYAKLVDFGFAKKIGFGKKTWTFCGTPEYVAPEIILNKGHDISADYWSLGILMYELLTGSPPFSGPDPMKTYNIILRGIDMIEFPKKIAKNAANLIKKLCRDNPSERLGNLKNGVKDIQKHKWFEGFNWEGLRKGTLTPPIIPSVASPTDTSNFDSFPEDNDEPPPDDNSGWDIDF

[12] = target: Receptor tyrosine-protein kinase erbB-4 (Homo sapiens) (UniProt Q15303); conditions: Compound concentration 1000.0 nM
[13] = target: cAMP-dependent protein kinase catalytic subunit beta (Homo sapiens) (UniProt P22694); conditions: Compound concentration 1000.0 nM
[14] = target: Delta-type opioid receptor (Homo sapiens) (UniProt P41143); conditions: Compound concentration 10.0 uM
Delta-type opioid receptor (Homo sapiens), sequence (P41143 whole entry): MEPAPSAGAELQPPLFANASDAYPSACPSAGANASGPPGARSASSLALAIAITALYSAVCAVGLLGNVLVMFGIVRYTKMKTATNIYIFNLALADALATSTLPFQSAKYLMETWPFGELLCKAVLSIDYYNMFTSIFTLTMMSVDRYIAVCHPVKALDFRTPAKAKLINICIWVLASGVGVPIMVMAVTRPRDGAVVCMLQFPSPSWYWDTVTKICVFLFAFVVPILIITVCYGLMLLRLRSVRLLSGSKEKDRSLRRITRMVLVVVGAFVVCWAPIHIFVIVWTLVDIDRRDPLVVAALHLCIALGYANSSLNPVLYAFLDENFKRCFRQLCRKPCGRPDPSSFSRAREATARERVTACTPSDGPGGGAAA

[15] = target: Serine/threonine-protein kinase LATS2 (Homo sapiens) (UniProt Q9NRM7); conditions: Compound concentration 1000.0 nM
Serine/threonine-protein kinase LATS2 (Homo sapiens), sequence (Q9NRM7 whole entry): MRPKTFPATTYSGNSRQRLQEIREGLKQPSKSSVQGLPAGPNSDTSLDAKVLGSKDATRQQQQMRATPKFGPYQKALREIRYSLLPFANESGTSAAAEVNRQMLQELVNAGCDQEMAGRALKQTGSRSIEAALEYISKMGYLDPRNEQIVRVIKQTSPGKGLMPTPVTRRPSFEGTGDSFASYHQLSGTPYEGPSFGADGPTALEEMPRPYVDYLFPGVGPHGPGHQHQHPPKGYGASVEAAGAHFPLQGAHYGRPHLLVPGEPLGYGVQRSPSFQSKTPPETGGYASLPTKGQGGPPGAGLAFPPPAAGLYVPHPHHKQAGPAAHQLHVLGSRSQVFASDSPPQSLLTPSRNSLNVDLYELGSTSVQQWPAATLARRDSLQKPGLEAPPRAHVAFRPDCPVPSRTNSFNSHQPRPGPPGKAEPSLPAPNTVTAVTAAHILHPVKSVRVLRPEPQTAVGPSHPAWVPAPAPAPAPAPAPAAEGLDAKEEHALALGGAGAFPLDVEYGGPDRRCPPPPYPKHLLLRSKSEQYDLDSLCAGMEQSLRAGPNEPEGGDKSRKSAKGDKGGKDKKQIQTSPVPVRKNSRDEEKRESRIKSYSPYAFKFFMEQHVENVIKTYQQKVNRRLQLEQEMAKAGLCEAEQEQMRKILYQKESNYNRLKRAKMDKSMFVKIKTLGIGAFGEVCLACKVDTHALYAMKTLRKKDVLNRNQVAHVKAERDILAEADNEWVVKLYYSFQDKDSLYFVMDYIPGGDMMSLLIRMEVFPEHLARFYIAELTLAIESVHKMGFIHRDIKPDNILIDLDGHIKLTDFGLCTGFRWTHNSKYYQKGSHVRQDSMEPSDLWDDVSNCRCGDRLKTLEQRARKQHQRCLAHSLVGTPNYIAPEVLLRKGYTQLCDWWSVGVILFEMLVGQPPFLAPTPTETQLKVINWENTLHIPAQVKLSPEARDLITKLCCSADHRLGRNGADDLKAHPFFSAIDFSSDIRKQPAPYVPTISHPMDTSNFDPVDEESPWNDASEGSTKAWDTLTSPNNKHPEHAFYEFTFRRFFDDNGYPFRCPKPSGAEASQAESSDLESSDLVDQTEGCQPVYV

Epidermal growth factor receptor (Homo sapiens), sequence (P00533 whole entry): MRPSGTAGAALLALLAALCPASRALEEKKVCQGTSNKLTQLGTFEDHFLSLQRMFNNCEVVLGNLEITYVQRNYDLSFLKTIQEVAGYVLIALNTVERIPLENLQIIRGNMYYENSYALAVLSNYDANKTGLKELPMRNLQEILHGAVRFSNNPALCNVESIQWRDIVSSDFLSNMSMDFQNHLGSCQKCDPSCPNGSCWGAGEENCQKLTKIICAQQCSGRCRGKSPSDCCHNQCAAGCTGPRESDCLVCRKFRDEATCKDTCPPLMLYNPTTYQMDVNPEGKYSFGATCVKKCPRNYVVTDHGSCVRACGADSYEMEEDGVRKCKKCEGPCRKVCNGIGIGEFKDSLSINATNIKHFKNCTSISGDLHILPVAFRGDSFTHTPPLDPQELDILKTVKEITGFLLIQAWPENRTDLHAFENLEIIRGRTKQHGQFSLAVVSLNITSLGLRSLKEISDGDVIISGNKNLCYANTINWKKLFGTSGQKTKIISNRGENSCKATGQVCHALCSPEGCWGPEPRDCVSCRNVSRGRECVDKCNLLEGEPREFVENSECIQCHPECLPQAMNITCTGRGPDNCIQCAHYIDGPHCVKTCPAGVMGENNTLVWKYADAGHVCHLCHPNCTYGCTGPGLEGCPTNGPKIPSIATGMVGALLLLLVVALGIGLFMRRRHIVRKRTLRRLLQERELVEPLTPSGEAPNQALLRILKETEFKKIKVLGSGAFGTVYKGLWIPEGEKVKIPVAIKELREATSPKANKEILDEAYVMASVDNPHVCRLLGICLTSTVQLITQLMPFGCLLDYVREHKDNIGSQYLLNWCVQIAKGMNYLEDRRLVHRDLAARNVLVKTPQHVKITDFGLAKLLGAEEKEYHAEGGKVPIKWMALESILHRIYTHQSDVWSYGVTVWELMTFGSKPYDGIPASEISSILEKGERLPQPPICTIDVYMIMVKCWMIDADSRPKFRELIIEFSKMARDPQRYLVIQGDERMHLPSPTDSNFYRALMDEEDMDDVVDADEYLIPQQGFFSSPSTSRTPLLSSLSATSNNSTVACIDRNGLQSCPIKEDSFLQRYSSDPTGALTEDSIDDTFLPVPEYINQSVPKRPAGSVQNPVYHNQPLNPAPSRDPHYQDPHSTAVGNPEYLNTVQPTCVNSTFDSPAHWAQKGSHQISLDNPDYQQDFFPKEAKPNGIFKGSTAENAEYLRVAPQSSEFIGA

CC1=C(C#N)C(c2ccc3c(c2)c(NC(=O)c2ccccc2C)nn3C)C(C#N)=C(C)N1 [BAY-974]
inactive: residual activity [1] 84% | residual activity [2] 71% | residual activity [3] 100% | residual activity [4] 92% | inhibition [5] 2.45% | residual activity [6] 71% | residual activity [7] 57% | residual activity [8] 94% | residual activity [9] 94% | residual activity [10] 85% | residual activity [11] 100% | residual activity [12] 65% | residual activity [13] 100% | inhibition [14] 17.7% | residual activity [15] 100%

CCc1ccccc1C(=O)Nc1n[nH]c2c(C)c(F)c(C3C(C#N)=C(C)N(C)C(C)=C3C#N)cc12 [BAY-3827]
inactive: residual activity [1] 85% | residual activity [2] 99% | residual activity [3] 100% | residual activity [4] 100% | inhibition [5] 4.65% | residual activity [6] 100% | residual activity [7] 94% | residual activity [8] 51% | residual activity [9] 100% | residual activity [10] 96% | residual activity [11] 100% | residual activity [12] 84% | residual activity [13] 99% | inhibition [14] 20.5% | residual activity [15] 67%
